We go through 1 compound from PMC6407204, “Oral administration of the cannabigerol derivative VCE-003.2 promotes subventricular zone neurogenesis and protects against mutant huntingtin-induced neurodegeneration” (Translational Neurodegeneration, 2019).

Where only a bound is given, the exact number is not on record here.

One data set has as its target T1, CYP2B6 (Homo sapiens, UniProt P20813).
T1 construct: from tissue; host or cells: human liver microsomes
Kind of data set: biochemical. The data set is classed as in vitro ADME. Conditions: Substrate = Bupropion, human liver microsomes. On the procedure: (§1) Supplementary file 40035_2019_148_MOESM2_ESM.pdf: Additional file 2: Cytochrome P450 Inhibition (IC50 Determination). CYP1A Inhibition. VCE-003.2 (0.1, 0.25, 1, 2.5, 10, 25 μM in DMSO; final DMSO concentration = 0.3%) was incubated with human liver microsomes (0.25 mg/mL) and NADPH (1 mM) in the presence of the probe substrate ethoxyresorufin (0.5 μM) for 5 min at 37 °C. The selective CYP1A inhibitor, alpha-naphthoflavone, was screened alongside the test compounds as a positive control. CYP2B6 Inhibition. VCE-003.2 (0.1, 0.25, 1, 2.5, 10, 25 μM in DMSO; final DMSO concentration = 0.3%) was incubated with human liver microsomes (0.1 mg/mL) and NADPH (1 mM) in the presence of the probe substrate bupropion (110 μM) for 5 min at 37 °C. The selective CYP2B6 inhibitor, ticlopidine, was screened alongside the test compounds as a positive control. CYP2C8 Inhibition. VCE-003.2 (0.1, 0.25, 1, 2.5, 10, 25 μM in DMSO; final DMSO concentration = 0.3%) was incubated with human liver microsomes (0.25 mg/mL) and NADPH (1 mM) in the presence of the probe substrate paclitaxel (7.5 μM) for 30 min at 37 °C. The selective CYP2C8 inhibitor, montelukast, was screened alongside the test compounds as a positive control. CYP2C9 Inhibition. VCE-003.2 (0.1, 0.25, 1, 2.5, 10, 25 μM in DMSO; final DMSO concentration = 0.3%) was incubated with human liver microsomes (1 mg/mL) and NADPH (1 mM) in the presence of the probe substrate tolbutamide (120 μM) for 60 min at 37 °C. The selective CYP2C9 inhibitor, sulphaphenazole, was screened alongside the test compounds as a positive control. CYP2C19 Inhibition. VCE-003.2 (0.1, 0.25, 1, 2.5, 10, 25 μM in DMSO; final DMSO concentration = 0.3%) was incubated with human liver microsomes (0.5 mg/mL) and NADPH (1 mM) in the presence of the probe substrate mephenytoin (25 μM) for 60 min at 37 °C. The selective CYP2C19 inhibitor, tranylcypromine, was screened alongside the test compounds as a positive control. CYP2D6 Inhibition. VCE-003.2 (0.1, 0.25, 1, 2.5, 10, 25 μM in DMSO; final DMSO concentration = 0.3%) was incubated with human liver microsomes (0.5 mg/mL) and NADPH (1 mM) in the presence of the probe substrate dextromethorphan (5 μM) for 5 min at 37 °C. […] CYP3A4 Inhibition. VCE-003.2 (0.1, 0.25, 1, 2.5, 10, 25 μM in DMSO; final DMSO concentration = 0.3%) was incubated with human liver microsomes (0.1 mg/mL) and NADPH (1 mM) in the presence of the probe substrate midazolam (2.5 μM) for 5 min at 37 °C. The selective CYP3A4 inhibitor, ketoconazole, was screened alongside the test compounds as a positive control. CYP3A4 Inhibition. VCE-003.2 (0.1, 0.25, 1, 2.5, 10, 25 μM in DMSO; final DMSO concentration = 0.3%) was incubated with human liver microsomes (0.5 mg/mL) and NADPH (1 mM) in the presence of the probe substrate testosterone (50 μM) for 5 min at 37 °C. The selective CYP3A4 inhibitor, ketoconazole, was screened alongside the test compounds as a positive control. For the CYP1A incubations, the reactions were terminated by methanol, and the formation of the metabolite, resorufin, was monitored by fluorescence (excitation wavelength = 535 nm, emission wavelength = 595 nm). For the CYP2B6, CYP2C9, CYP2C19, CYP2D6, and CYP3A4 incubations, the reactions were terminated by methanol. The samples were centrifuged, and the supernatants combined for the simultaneous analysis of 4-hydroxytolbutamide, 4-hydroxymephenytoin, dextrorphan, and 1-hydroxymidazolam by LC-MS/MS. Hydroxybupropion, 6α-hydroxypaclitaxel and 6ß-hydroxytestosterone were analyzed separately by LC-MS/MS. A decrease in the formation of the metabolites compared to vehicle control was used to calculate IC50 values. (PDF 323 kb)

The next data set deals with T2, CYP2C19 (Homo sapiens, UniProt P33261).
T2 construct: from tissue; host or cells: human liver microsomes
Kind of data set: biochemical. It counts as in vitro ADME. As to conditions: Substrate = Mephenytoin, human liver microsomes. On the procedure:
as §1
(Microsomes from liver hold many membrane-bound enzymes, among them those of drug oxidation.)

Another data set addresses T3, CYP2C8 (Homo sapiens, UniProt P10632).
T3 construct: from tissue; host or cells: human liver microsomes
Put plainly: biochemical. The data set is classed as in vitro ADME. As to conditions: Substrate = Paclitaxel, human liver microsomes. On the procedure:
as §1

For a further data set, the target named is T4, CYP2C9 (Homo sapiens, UniProt P11712).
T4 construct: from tissue; host or cells: human liver microsomes
Kind of data set: biochemical. The data set is classed as in vitro ADME. As to conditions: Substrate = Tolbutamide, human liver microsomes. As for the experimental part:
as §1

Another data set has as its target T5, CYP2D6 (Homo sapiens, UniProt P10635).
T5 construct: from tissue; host or cells: human liver microsomes
Put plainly: biochemical. As to conditions: Substrate = Dextromethorphan, human liver microsomes. The data set is classed as in vitro ADME. On the procedure: as §1

In another data set the target is T6, CYP3A4 (Homo sapiens, UniProt P08684).
T6 construct: from tissue; host or cells: human liver microsomes
Put plainly: biochemical. Conditions: human liver microsomes. The data set is classed as in vitro ADME. On the procedure: as §1

In the next data set the test system is S. typhimurium TA98. Kind of data set: AMES reverse mutation assay, TA98. It counts as cell-based. As for the experimental part:
Supplementary file 40035_2019_148_MOESM4_ESM.pdf: Additional file 4: AMES Data Summary. AMES Experimental Procedure. Approximately ten million bacteria are exposed in triplicate to VCE-003-.2 (7.8, 15.6, 31.3, 62.5, 125 and 250 μg/ml), a negative control (vehicle) and a positive control for 90 min in medium containing a low concentration of histidine (sufficient for about 2 doublings). The cultures were then diluted into indicator medium lacking histidine and dispensed into 48 wells of a 384 well plate (micro-plate format, MPF). The plate was incubated for 48 h at 37 °C, and the number of wells showing growth were counted and compared to the vehicle control. An increase in the number of colonies of at least two-fold over baseline (mean + SD of the vehicle control) and a dose response indicates a positive response. […] Where indicated, S9 fraction from the livers of Aroclor 1254-treated rats was included in the incubation at a final concentration of 4.5%. An NADPH-regenerating system is also included to ensure a steady supply of reducing equivalents. The strains used in this study were S. typhimurium TA98 (hisD3052, rfa, uvrB/pKM10 for detection of frame-shift mutations) and S. typhimurium TA100 ([…], rfa, uvrB/pKM101 for detection of base-pair substitutions). VCE-003.2 was assessed for its mutagenic potential in the AMES reverse mutation assay. This test was performed in the absence and presence of S9 metabolic activation. […] The positive controls all behaved as expected. (PDF 568 kb)

A further data set concerns the target hERG channel (Homo sapiens, UniProt Q12809).

T6 sequence (P08684 whole entry): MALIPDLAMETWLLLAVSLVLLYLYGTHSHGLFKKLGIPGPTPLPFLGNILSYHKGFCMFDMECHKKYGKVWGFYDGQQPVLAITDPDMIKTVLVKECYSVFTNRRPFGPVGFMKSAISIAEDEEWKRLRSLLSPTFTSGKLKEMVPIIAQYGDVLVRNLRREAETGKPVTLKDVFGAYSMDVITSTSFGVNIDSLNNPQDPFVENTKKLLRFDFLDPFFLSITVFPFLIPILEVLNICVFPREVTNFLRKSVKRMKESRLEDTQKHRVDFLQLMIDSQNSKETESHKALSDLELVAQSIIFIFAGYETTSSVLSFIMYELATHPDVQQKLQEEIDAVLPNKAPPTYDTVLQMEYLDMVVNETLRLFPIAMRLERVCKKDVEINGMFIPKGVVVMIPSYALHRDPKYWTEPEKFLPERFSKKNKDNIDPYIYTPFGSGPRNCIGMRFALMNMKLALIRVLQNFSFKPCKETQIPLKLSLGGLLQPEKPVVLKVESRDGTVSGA
T4 sequence (P11712 whole entry): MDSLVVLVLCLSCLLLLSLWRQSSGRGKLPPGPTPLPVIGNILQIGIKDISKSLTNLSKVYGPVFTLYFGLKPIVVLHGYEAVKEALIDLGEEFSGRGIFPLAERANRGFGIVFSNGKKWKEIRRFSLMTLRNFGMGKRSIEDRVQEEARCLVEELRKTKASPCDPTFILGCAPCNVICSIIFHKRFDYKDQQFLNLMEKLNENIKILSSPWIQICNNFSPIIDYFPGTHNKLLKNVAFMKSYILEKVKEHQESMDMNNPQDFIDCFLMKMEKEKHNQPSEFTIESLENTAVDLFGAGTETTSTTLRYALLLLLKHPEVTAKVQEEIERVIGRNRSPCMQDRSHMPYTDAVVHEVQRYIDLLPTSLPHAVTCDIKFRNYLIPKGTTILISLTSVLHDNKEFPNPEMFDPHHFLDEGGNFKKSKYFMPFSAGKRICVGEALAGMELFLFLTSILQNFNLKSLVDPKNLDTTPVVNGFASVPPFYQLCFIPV
Sequence of hERG channel (Q12809 whole entry): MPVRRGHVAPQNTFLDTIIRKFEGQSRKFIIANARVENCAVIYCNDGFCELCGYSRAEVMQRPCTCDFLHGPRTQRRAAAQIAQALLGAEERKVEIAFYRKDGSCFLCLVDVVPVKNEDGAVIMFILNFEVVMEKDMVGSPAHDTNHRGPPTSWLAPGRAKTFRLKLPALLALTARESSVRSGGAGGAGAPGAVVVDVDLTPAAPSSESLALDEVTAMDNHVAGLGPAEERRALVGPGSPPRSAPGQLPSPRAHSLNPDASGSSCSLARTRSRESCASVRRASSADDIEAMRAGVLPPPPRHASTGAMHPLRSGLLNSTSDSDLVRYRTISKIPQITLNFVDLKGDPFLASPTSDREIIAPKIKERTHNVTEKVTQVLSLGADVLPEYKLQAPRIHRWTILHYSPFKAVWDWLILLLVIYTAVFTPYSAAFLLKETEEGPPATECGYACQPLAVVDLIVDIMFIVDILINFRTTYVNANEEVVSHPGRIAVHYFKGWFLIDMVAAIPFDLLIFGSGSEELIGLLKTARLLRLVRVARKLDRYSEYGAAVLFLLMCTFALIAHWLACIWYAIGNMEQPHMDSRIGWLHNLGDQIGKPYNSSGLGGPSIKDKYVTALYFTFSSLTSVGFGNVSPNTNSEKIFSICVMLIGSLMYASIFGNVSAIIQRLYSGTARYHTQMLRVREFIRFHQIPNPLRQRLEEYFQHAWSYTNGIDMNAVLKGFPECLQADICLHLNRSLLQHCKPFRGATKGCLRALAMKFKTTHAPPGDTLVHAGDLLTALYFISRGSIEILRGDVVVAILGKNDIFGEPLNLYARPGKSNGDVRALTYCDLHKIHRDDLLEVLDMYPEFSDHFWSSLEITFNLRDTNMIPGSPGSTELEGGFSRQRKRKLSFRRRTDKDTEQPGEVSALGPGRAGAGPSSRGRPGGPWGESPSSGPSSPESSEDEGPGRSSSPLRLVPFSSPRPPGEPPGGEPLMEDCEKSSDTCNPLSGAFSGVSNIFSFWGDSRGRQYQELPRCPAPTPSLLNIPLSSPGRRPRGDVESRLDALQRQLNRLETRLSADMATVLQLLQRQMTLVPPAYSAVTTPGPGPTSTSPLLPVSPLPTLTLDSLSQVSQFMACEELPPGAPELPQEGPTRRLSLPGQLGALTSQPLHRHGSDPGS
T1 sequence (P20813 whole entry): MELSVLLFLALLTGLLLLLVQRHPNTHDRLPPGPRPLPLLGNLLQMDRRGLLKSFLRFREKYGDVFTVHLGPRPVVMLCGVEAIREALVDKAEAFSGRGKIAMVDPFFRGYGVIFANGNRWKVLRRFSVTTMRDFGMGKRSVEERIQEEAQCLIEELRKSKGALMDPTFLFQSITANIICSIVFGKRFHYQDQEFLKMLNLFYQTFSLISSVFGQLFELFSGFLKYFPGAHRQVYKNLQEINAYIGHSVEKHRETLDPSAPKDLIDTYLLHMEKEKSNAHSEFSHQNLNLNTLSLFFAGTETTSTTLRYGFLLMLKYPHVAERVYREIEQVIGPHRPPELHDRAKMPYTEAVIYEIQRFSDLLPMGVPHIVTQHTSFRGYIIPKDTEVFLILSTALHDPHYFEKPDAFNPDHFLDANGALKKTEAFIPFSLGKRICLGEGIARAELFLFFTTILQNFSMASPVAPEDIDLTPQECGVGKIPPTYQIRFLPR
T5 sequence (P10635 whole entry): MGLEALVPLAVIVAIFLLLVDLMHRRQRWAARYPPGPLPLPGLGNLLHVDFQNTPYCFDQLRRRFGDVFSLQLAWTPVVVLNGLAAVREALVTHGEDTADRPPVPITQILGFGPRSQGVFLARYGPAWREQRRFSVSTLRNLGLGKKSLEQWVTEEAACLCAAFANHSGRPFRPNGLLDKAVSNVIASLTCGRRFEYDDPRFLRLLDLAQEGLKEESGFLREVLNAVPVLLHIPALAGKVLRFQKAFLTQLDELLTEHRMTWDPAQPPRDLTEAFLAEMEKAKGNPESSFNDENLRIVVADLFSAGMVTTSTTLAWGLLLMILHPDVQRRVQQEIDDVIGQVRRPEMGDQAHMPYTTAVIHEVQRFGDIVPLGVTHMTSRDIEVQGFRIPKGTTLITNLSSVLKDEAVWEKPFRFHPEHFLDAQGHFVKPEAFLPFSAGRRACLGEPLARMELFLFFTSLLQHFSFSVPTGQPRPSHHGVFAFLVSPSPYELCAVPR
T3 sequence (P10632 whole entry): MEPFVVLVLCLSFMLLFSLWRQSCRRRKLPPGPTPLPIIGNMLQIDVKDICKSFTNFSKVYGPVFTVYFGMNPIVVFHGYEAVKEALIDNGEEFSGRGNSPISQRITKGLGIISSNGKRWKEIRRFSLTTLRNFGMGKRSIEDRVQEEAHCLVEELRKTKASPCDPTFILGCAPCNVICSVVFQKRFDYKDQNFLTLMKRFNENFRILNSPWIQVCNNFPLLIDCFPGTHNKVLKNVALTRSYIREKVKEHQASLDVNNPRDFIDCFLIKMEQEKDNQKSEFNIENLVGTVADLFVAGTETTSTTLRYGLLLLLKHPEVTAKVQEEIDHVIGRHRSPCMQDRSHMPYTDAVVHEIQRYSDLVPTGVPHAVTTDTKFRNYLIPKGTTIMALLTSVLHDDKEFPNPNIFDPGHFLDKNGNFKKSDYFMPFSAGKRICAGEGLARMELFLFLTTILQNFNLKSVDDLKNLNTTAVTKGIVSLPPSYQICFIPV
T2 sequence (P33261 whole entry): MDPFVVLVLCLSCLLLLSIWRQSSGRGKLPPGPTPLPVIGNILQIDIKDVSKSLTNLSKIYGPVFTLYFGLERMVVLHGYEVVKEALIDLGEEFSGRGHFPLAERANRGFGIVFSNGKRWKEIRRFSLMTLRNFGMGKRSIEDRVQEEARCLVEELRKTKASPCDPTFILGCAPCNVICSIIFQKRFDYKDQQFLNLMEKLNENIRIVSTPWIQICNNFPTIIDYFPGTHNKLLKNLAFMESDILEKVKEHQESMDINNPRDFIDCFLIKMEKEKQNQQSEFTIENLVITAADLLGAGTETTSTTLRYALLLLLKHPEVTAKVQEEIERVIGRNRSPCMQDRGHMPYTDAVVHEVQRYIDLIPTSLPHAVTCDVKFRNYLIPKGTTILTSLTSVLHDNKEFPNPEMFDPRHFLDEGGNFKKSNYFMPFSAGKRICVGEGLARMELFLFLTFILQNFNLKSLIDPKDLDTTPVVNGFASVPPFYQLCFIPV

By IC50 is commonly meant the midpoint of a concentration-inhibition curve. Turning to `CCCCCC1=C(NCC)C(=O)C(CC=C(C)CCC=C(C)C)=C(O)C1=O` [VCE-003.2, 2-(3,7-dimethyl-octa-2,6-dienyl)-6-ethylamino-3-hydroxy-5-pentyl-(1,4) benzoquinone], the IC50 against CYP2B6 is over 25 µM; against CYP2C19 it was over 25 µM; on CYP2C8 it was 13 ± 2.4 µM; on CYP2C9, 15.7 ± 1.96 µM; against CYP2D6, over 25 µM; at CYP3A4 (Substrate = Midazolam), over 25 µM. The IC50 against CYP3A4 (Substrate = Testosterone) is over 25 µM. The “AMES Result” value in the data set with S. typhimurium TA98 (TA98, S9 no) is “Negative”; in the data set on S. typhimurium TA98 (TA98, S9 yes) it was “Negative”. The “hERG channel activity inhibition (in words)” value at hERG channel is listed as “did not inhibit hERG channel activity”.
